Series [1] relates to carbon tetrachloride (CCl4)-induced liver diseases. Put plainly: Pharmacological activity on carbon tetrachloride-induced liver diseases. In kind it is in vivo, SD rats. The following applies: CCl4 1 ml/kg rat; for GPT: Table 26: CCl4 only 1521, no administration 24; for Total bilirubin: Table 26: CCl4 only 1.5, no administration 0.9; for GOT: Table 26: CCl4 only 3266, no administration 140. Here is the method: Twentyfive SD rats (male, 7 weeks old, body weight: about 220 g; supplied by Japan Charles River Co.) were divided to five groups (A-E) each consisting of five rats.
All rats were fasted for 16 hours and 1.1 ml of solutions containing 0.4 mg/ml, 1.0 mg/ml and 2.0 mg/ml of OPQ were intraperitoneally administered to the rats of groups C, D and E, respectively and furthermore, after 40 minutes, OPQ in the same dosage as above was intraperitoneally administered, respectively. In these cases, OPQ was used as a solution in physiological saline. To the rats of group B was intraperitoneally administered 1.1 ml of physiological saline in place of the OPQ solution.
Furthermore, after 20 minutes, 2.2 ml of 10 % carbon tetrachloride solution (in olive oil) was administered to stomach of the rats of groups B-E. Neither OPQ nor carbon tetrachloride was administered to the rats of group A.
After 24 hours from administration of carbon tetrachloride, blood was collected from abdominal aorta and serum was obtained by centrifugal separation.
GPT, GOT and amount of total bilirubin were measured by clinical examination reagent (trademark: FUJI Dry Chemslide manufactured by Fuji Photo Film Co., Ltd.). The results are shown in Table 26 by average value of five rats.

Series [2] relates to D-galactosamine-induced liver diseases. Put plainly: Pharmacological effect on D-galactosamine-induced liver diseases. The following applies: intraperitoneally twice, 1.2 ml of 0.4, 1.0, 2.0 or 3.0 mg/ml; serum 23 hours after D-galactosamine. In kind it is in vivo, SD rats. Here is the method: Thirty SD rats (male, 7 weeks old, body weight: about 240 g; supplied by Japan Charles River Co.) were divided to six groups (A-F) each consisting of five rats. All rats were fasted for 18 hours and 1.2 ml of solutions containing 0.4 mg/ml, 1.0 mg/ml, 2.0 mg/ml, and 3.0 mg/ml of OPQ were intraperitoneally administered to rats of groups C, D, E and F, respectively, and furthermore, after lapse of 40 minutes, OPQ in the same doses as above were intraperitoneally administered to the rats, respectively. In these cases, the OPQ was dissolved in physiological saline and administered to the rats. For the rats of group B, 1.2 ml of physiological saline was intraperitoneally administered in place of the OPQ solution.
Furthermore, after lapse of 20 minutes, 1.2 ml of a solution containing 0.2 mg/ml of D-galactosamine was subcutaneously injected to the rats of groups B-F. Neither OPQ nor D-galactosamine was administered to the rats of group A.
After lapse of 23 hours from administration of D-galactosamine, blood was collected from abdominal aorta and serum was obtained by centrifugal separation.
GPT, GOT and total amount of bilirubin were measured by clinical examination reagent (trademark: FUJI DRYCHEMSLIDE manufactured by Fuji Photo Film Co., Ltd.). The results are shown in Table 28 by average value of five rats.

For series [3], the system named is cataract. Put plainly: Anti-cataract effect, intraperitoneal administration, 50 % galactose fed rats. The following applies: 2 mg, 5 mg, 10 mg and 20 mg per 1 kg of rat intraperitoneally once a day. In kind it is in vivo, Sprague-Davley rats. Here is the method:
Eightyfour male Sprague-Davley rats (supplied from Japan Charles Liver Co.) of four weeks old and having a body weight of 70 - 80 g were used and the following experiments were conducted. One group consisted of six rats.
The groups included normal group, 50 % galactose administration group, PQQ administration group, and OPQ administration group. Commercially available feeding stuff (manufactured by Japan Clea Co.) was given to the rats of normal group, and rats of 50 % galactose administration group, PQQ administration group and OPQ administration group were allowed to freely take powdery feeding stuff comprising a mixture of the above-mentioned commercially available powder feeding stuff and D-galactose for food additive in equal weight.
To the rats of PQQ and OPQ administration groups were intraperitoneally administered PQQ·2Na or OPQ in a dosage of 2 mg, 5 mg, 10 mg and 20 mg per 1 kg of rat once a day simultaneously with starting of galactose feeding and until termination of feeding.
On the 6th day and the 9th day from starting of experiment, eyeball was observed by stereoscopic microscope and judgment on cataract was made according to the following criteria. A0: No muddiness (normal) A1: Light white muddiness in the surface portion. A2: A slight heavy white muddiness in the surface portion. A3: Heavy white muddiness in the surface portion. A4: Heavy white muddiness in the surface portion and a slight white muddiness in the core portion. A5: Heavy white muddiness in the surface portion and the core portion.

Series [4] relates to B cell. Put plainly: Test on B cell blast transformation reaction, spleen cells of treated mice. The following applies: for Relative activity (%): no administration = 100. In kind it is in vivo, C3H/He mice. Here is the method:
Cells of spleen of C3H/He mice to which OPQ was administered were obtained in the same manner as in Example 38.
Further, intake amount of ^3H-thymidine was examined in the same manner as in Example 38 except that 25 µg/ml or 50 µg/ml of lipopolysaccharide (LPS WE E. coli 0111, Difco) was used in place of the concanavalin A as mitogen. Values in the table are average values of intake amount (cpm) of ^3H in culture under four same conditions.
In Examples 36 - 40, macrophage activity was examined according to chemotaxis of peritoneal macrophage (literature 1) and activity of T cell and that of B cell were examined according to blast transformation reaction using concanavalin A and lipopolysaccharide, (LPS) as mitogen (literature 2). Literature 1: "Function of Macrophage and Method of Measurement of Function", pages 61-65 1985), edited by Educational Committee of Japan Bacteriological Society and published from Saikon Shuppan Co.) Literature 2: "New Method of Searching of Function of Lymphocytes", pages 350-355 (1987) edited by Junichi Yada and Michio Fujiwara and published from Chugai Igaku Co.

[5] abbreviates: 2 mg/kg rat twice intraperitoneally.
Setting [6] is: 5 mg/kg rat twice intraperitoneally.
The mark [7] stands for this setting: 10 mg/kg rat twice intraperitoneally.

Data on one compound can be found in patent EP0429333B1, “Process for producing oxazopyrroloquinolines, novel oxazopyrroloquinolines, and use of oxazopyrroloquinolines” (priority 1989, dated 1991).

As to `O=C(O)c1cc(C(=O)O)c2c(n1)c1ncoc1c1cc(C(=O)O)[nH]c12` [OPQ, oxazopyrroloquinoline], the GPT was determined as 1057 U/l in series [1] (2 mg/kg rat twice intraperitoneally, serum after 24 hours); 553 U/l in series [1] (setting [6]); 650 U/l in series [1] (setting [7]). For the same compound, the Total bilirubin was 1.2 mg/dL in series [1] (setting [5]), 1.2 mg/dL in series [1] (setting [6]) and 1.1 mg/dL in series [1] (setting [7]). The GOT in series [1] (setting [5]) is given as 2402 U/l; in series [1] (setting [6]), 1892 U/l; in series [1] (setting [7]) it was 1907 U/l. In series [2], the “GPT, GOT and total amount of bilirubin which increased by administration of D-galactosamine” value is reported as “all sharply decreased”. The rats died entry in series [3] is listed as “no rats died”. The “Relative activity (%)” value in series [4] (5mg/kg mouse x 7 days, Lipopolysaccharide 25 µg/ml) is recorded as 108%; in series [4] (5mg/kg mouse x 7 days, Lipopolysaccharide 50 µg/ml) it was 109%; in series [4] (10mg/kg mouse x 7 days, Lipopolysaccharide 25 µg/ml), 121%; in series [4] (10mg/kg mouse x 7 days, Lipopolysaccharide 50 µg/ml), 126%. Also, the “intake amount (cpm) of ^3H” value is recorded as 9303 cpm in series [4] (5mg/kg mouse x 7 days, Lipopolysaccharide (LPS) 0 µg/ml, no administration 6562); 37434 cpm in series [4] (5mg/kg mouse x 7 days, Lipopolysaccharide (LPS) 25 µg/ml, no administration 34557); 46193 cpm in series [4] (5mg/kg mouse x 7 days, Lipopolysaccharide (LPS) 50 µg/ml, no administration 42247); 9301 cpm in series [4] (10mg/kg mouse x 7 days, Lipopolysaccharide (LPS) 0 µg/ml, no administration 6562); 41876 cpm in series [4] (10mg/kg mouse x 7 days, Lipopolysaccharide (LPS) 25 µg/ml, no administration 34557); 53267 cpm in series [4] (10mg/kg mouse x 7 days, Lipopolysaccharide (LPS) 50 µg/ml, no administration 42247).
